Format in all cases: binding
Test [1] addresses T1, human serum albumin (HSA) (Homo sapiens, UniProt P02768).
T1 construct: I (residues 1–195), II (196–383), and III (384–585); purchased Sigma
Nature of the test: Fluorescence quenching titration of HSA (Stern–Volmer analysis). Particulars: for K SV, Stern–Volmer quenching constant: 20 mM phosphate buffer pH 7.4, 25°C, excitation 295 nm; for K q, bimolecular quenching rate constant: Kq = KSV/τ0, τ0 = 10^−8 s, 25°C; for ∆G, standard free energy change of binding: ΔG = −2.303 RT logK; for redshift at the maximal emission wavelength of Tyr and Trp residues of HSA: increasing compound concentration. As to the method:
(§1) The samples of HSA were prepared in 20 mM phosphate buffer (pH 7.4), whereas silver complexes (1 mM) stock solution were prepared in DMSO and further diluted in 20 mM phosphate buffer to reach the desired concentration. In all the samples, the final concentration of DMSO was not more than 1%. The concentration of HSA was determined using the Beer–Lambert law with the molar extinction coefficient of 36500 M^−1·cm^−1 at 280 nm. To study structural changes in HSA by the addition of [Ag(I)(Hnor)2](anion) compounds, the UV absorption spectra were measured, by variation of the concentration of the [Ag(I)(Hnor)2](anion) compounds, while keeping the concentration of HSA constant. UV absorption spectra, from 240 nm to 320 nm, were recorded on a Perkin–Elmer Lambda 45 spectrophotometer at 25°C. Quartz cuvettes of 1 cm path length were used for the measurements. Fluorescence measurements were performed on a Hitachi spectrofluorometer (Model F 7000) equipped with a PC. The fluorescence spectra were collected at 25°C with a path length cell of 1 cm. The slit width used was 5 nm with a protein concentration of 5 µM. The used excitation wavelength for the protein was 295 nm.
(§2) All the spectra were recorded after equilibration of the reaction mixture for 5 min.
The interaction between metal compounds and proteins has been widely investigated by using fluorescence spectroscopies. The luminescence response of HSA, upon addition of different concentrations of Ag(I) compounds, was studied in 20 mM phosphate buffer by using an emission titration experiment. Preliminary luminescence studies of the four starting Ag compounds 1–4 have been reported earlier by some of us. The excitation at 290 nm for all four compound results in a strong luminescence band at around 370 nm. The fluorescence studies of the ligand “Hnor” as well as the free silver salt, “AgNO3,” were also studied under the same conditions to compare the effect of separate entities with a combination of the two. Upon excitation at 295 nm, fluorescence intensity around 340 nm is known to reflect the changes of the tryptophan residue microenvironment. […] In Figure S3, similar data are presented for compounds 2–4, with only marginal differences upon anion variation.
The interaction of the Ag compounds with HSA was quantified; the Stern–Volmer equation has been employed:(1) F0/F=1+KSVQ=1+Kqτ0Q, where F 0 and F are the steady-state fluorescence intensities in the absence and presence of quencher at 340 nm, respectively. K sv is the Stern–Volmer quenching constant, K q stands for bimolecular quenching constant, τ 0 is the lifetime of the fluorophore in the absence of quencher, and [Q] is the concentration of quencher (i.e., the Ag compound). By calculating the quenching rate constants, K q, one can distinguish between the static quenching and the dynamic quenching, and this was evaluated by using the following equation:(2) Kq=KSV/τ0.
The value of tau(zero), τ 0, for biopolymers is known to be 10^−8 s. The Stern–Volmer quenching constant (K sv) for the fluorometric titration of the Ag(I) compounds into HSA solution was calculated from the linear relationship between F 0/F and [Ag(I)(Hnor)2]ClO4 (Figure 5) and enlisted in Table 1. In Figure S4, similar data are presented for compounds 2–4, confirming the above observations.
The equilibrium between free and bound molecules, when small molecules bind independently to a set of similar sites on a macromolecule, was ascertained by a modified Stern–Volmer equation [42]:(3) logF0−F/F=logK+n logQ, where K and n are the binding constant and the number of binding sites, respectively. A plot of log(F 0 − F/F) versus log[Q] was used to determine the value of K and n (inset in Figure 5). Several forces, like electrostatic, hydrogen bonds, weak van der Waals, hydrophobic, and steric contacts, can be thought of being responsible for the interaction between the albumin and Ag compounds. […]

The target in test [2] is T1, human serum albumin (HSA). Nature of the test: Fluorescence quenching of HSA with addition of extra anions (KClO4, KNO3). To be noted: for K SV / K, binding constant / n, number of binding sites: HSA 5 µM; for effect of anion salt alone on HSA structure: without Ag and Hnor, up to the concentration maximum used in the experiments. As to the method: as §1
Given the fact that the highest anticancer activity and also the most substantial HSA interaction takes place in case of the perchlorate and nitrate salts, it was decided to add extra perchlorate (and also nitrate) for all cases and to study the effect on the binding affinity. So, we carried out two sets of experiments and studied the binding propensity of Ag(I) compounds with HSA. In one experiment, the extra ClO4 ^− anion was added in a 1 : 4 ratio, compared to the Ag compound. In a second experiment, we used additional nitrate together with the Ag(I) compounds. Details are given in Figures 6 and 7, and the quite similar details for the other 3 compounds are presented in Figures S5 and S6 in Supplementary Materials.
To determine the role of only the anions (i.e., without Ag and Hnor), we also used KClO4 and KNO3 and studied their HSA binding by adding variable amounts of anions to the concentration maximum used in the experiments. […] When the extra anions + compounds were titrated, the results obtained did show an exponential increase in binding affinity of the Ag(I) compounds.
The binding strength was evaluated by calculating the Stern–Volmer constant (K sv), a number of the binding sites (n) and Gibbs free energy (ΔG); (Table 2). […] However, no correlation with the size of these four anions is seen.

The target in test [3] is T1, human serum albumin (HSA). Nature of the test: UV absorption spectra of HSA with Ag(I) compounds. To be noted: HSA 5 µM, with hyperchromism. As to the method: as §1, §2
For test [4], the target named is T1, human serum albumin (HSA). Nature of the test: Far-UV circular dichroism of HSA, α-helix content. Also noted: unit of the concentration uncertain. Particulars: HSA 20 µM, free HSA 67.03. The method, then:
CD measurements were carried out on a Jasco spectropolarimeter (Model J-815) equipped with a microcomputer. The instrument was calibrated with D-10-camphorsulfonic acid. All the CD measurements were performed at 25°C with a thermostatically controlled cell holder, attached to a Neslab RTE-110 water bath with an accuracy of ±0.1°C. Spectra were collected with a scan speed of […] and a response time of 1 s. Each spectrum was taken as the average of three scans. The far-UV CD spectra were measured at a protein concentration of 20 µM at a path length of 1 cm.
as §2
The CD signal, expressed in millidegree, obtained over the wavelength range of 190–250 nm, was converted to a mean residue ellipticity (MRE, θ), using the following conversion:(5) MRE=θobs mdeg/10×n×Cp×l, where θ obs is the CD in millidegree, the number of amino acid residues (585) is given by n, “l” is the path length (cm), and C p is the molarity. The unit of MRE is deg·cm^2·dmol^−1.
On the technique in general: Circular dichroism is widely used to follow secondary structure.

Where [5] appears, read: modified Stern–Volmer equation, HSA 5 µM, pH 7.4, 25°C.
The mark [6] stands for this setting: Set A: +extra ClO4− (KClO4, 1:4 ratio).
Where [7] appears, read: Set B: +extra NO3− (KNO3, 1:4 ratio).
Where [8] appears, read: compound concentration 20 (unit uncertain).
The mark [9] stands for this setting: compound concentration 40 (unit uncertain).
Setting [10] is: compound concentration 60 (unit uncertain).
Setting [11] is: compound concentration 80 (unit uncertain).
The mark [12] stands for this setting: compound concentration 100 (unit uncertain).

T1 sequence (P02768 25-609): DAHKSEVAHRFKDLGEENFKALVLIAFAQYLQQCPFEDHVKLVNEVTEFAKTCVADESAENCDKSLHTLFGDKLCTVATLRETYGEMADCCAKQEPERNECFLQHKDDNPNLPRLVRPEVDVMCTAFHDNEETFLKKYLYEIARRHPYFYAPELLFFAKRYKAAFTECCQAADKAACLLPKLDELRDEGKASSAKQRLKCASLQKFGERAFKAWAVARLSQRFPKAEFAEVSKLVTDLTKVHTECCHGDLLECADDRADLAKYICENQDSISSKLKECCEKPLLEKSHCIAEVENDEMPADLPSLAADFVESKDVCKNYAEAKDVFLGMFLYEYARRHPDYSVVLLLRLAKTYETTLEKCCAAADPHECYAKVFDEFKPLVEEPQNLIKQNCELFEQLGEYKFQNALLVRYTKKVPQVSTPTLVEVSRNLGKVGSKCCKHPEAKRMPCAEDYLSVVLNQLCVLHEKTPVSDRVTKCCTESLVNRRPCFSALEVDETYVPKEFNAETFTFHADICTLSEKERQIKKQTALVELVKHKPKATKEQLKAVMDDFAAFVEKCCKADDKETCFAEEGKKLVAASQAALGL

With `O=[N+]([O-])[O-].[Ag+]` [AgNO3, reference compound], in test [1] (HSA 5 µM), the “K SV, Stern–Volmer quenching constant” value is recorded as 3.10 10^5 M^−1 and the “K q, bimolecular quenching rate constant” value is 31.0 10^12 M^−1·s^−1. In addition, in test [1] (setting [5]), the “K, binding constant” value is on record as 1.94 10^6 M^−1 and the “n, number of binding sites” value worked out at 1.1. Further, the “∆G, standard free energy change of binding” value in test [1] is -35.88 kJ/mol.

For the compound `O=[N+]([O-])[O-].[Ag+].c1ccc2c(c1)[nH]c1cnccc12.c1ccc2c(c1)[nH]c1cnccc12` [Compound 2, [Ag(Hnor)2](NO3)], in test [1] (HSA 5 µM), the “K SV, Stern–Volmer quenching constant” value is 5.34 10^5 M^−1. Also, in test [1] (HSA 5 µM), the “redshift at the maximal emission wavelength of Tyr and Trp residues of HSA” value (shortened to “redshift … of Tyr and Trp residues of HSA”) was 5 nm. For the same compound, the “K q, bimolecular quenching rate constant” value in test [1] (HSA 5 µM) is reported as 53.4 10^12 M^−1·s^−1. Further, the results for the “K, binding constant” value in test [1] (setting [5]), in test [2] (setting [6]) and in test [2] (setting [7]) were 3.64 10^6 M^−1, 6.05 10^10 M^−1 and 0.66 10^10 M^−1, respectively. The “n, number of binding sites” value in test [1] (setting [5]) is listed as 1.0; in test [2] (setting [6]) it was 1.58; in test [2] (setting [7]), 1.53. Besides, the “∆G, standard free energy change of binding” value in test [1] is -37.44 kJ/mol. In addition, the “K SV” value in test [2] (setting [6]) is 1.29 10^7 M^−1; in test [2] (setting [7]), 1.24 10^7 M^−1. Moreover, the “∆G” value in test [2] (setting [7]) is -56.05 kJ/mol. Also, in test [3], the “redshift (bathochromic effect) of HSA UV absorbance” value (“redshift (bathochromic effect)” for short) is reported as 5 nm. For the same compound, the “% α-helix of HSA” value in test [4] (setting [8]) is listed as 62.85%; in test [4] (setting [9]), 61.61%; in test [4] (setting [10]), 58.41%; in test [4] (setting [11]), 52.02%; in test [4] (setting [12]), 42.73%.

Turning to `CC#N.F[P-](F)(F)(F)(F)F.[Ag+].c1ccc2c(c1)[nH]c1cnccc12.c1ccc2c(c1)[nH]c1cnccc12` [Compound 3, [Ag(Hnor)2(MeCN)](PF6)], in test [1] (HSA 5 µM), the “K SV, Stern–Volmer quenching constant” value is 4.53 10^5 M^−1. For the same compound, in test [1] (HSA 5 µM), the “redshift … of Tyr and Trp residues of HSA” value was found to be 4 nm. Besides, the “K q, bimolecular quenching rate constant” value in test [1] (HSA 5 µM) was 45.3 10^12 M^−1·s^−1. Further, the “K, binding constant” value in test [1] (setting [5]) is 0.55 10^6 M^−1; in test [2] (setting [6]), 0.46 10^10 M^−1; in test [2] (setting [7]) it was 0.08 10^10 M^−1. In addition, the “n, number of binding sites” value in test [1] (setting [5]) is 1.2; in test [2] (setting [6]), 1.55; in test [2] (setting [7]), 1.41. Also, the “∆G, standard free energy change of binding” value in test [1] is -32.73 kJ/mol. Moreover, the “∆G” value in test [2] (setting [6]) is -55.13 kJ/mol; in test [2] (setting [7]), -51.01 kJ/mol. Also, the “K SV” value is on record as 0.84 10^7 M^−1 in test [2] (setting [6]) and 0.80 10^7 M^−1 in test [2] (setting [7]). For the same compound, the “redshift (bathochromic effect)” value in test [3] is 5 nm. The “% α-helix of HSA” value is listed as 63.57% in test [4] (setting [8]); 62.57% in test [4] (setting [9]); 60.37% in test [4] (setting [10]); 56.31% in test [4] (setting [11]); 47.18% in test [4] (setting [12]).

For `F[B-](F)(F)F.[Ag+].c1ccc2c(c1)[nH]c1cnccc12.c1ccc2c(c1)[nH]c1cnccc12` [Compound 4, [Ag(Hnor)2](BF4)], the “K SV, Stern–Volmer quenching constant” value in test [1] (HSA 5 µM) was 3.97 10^5 M^−1. In addition, in test [1] (HSA 5 µM), the “redshift … of Tyr and Trp residues of HSA” value was 4 nm. Also, the “K q, bimolecular quenching rate constant” value in test [1] (HSA 5 µM) is 39.7 10^12 M^−1·s^−1. Further, the results for the “K, binding constant” value in test [1] (setting [5]), in test [2] (setting [6]) and in test [2] (setting [7]) were 1.14 10^6 M^−1, 1.19 10^10 M^−1 and 0.38 10^10 M^−1, respectively. Moreover, the “n, number of binding sites” value in test [1] (setting [5]) is reported as 1.1; in test [2] (setting [6]) it was 1.69; in test [2] (setting [7]), 1.48. Moreover, in test [1], the “∆G, standard free energy change of binding” value was -34.55 kJ/mol. The “K SV” value in test [2] (setting [6]) is listed as 1.85 10^7 M^−1; in test [2] (setting [7]) it was 1.38 10^7 M^−1. Besides, the “∆G” value in test [2] (setting [7]) was -54.67 kJ/mol. Also, the “redshift (bathochromic effect)” value in test [3] turned out to be 6 nm. The “% α-helix of HSA” value in test [4] (setting [8]) was determined as 65.25%; in test [4] (setting [9]), 63.82%; in test [4] (setting [10]), 61.53%; in test [4] (setting [11]) it was 56.66%; in test [4] (setting [12]) it was 47.52%.

Take `c1ccc2c(c1)[nH]c1cnccc12` [Hnor, 9H-pyrido[3,4-b]indole, reference compound]: in test [1] (HSA 5 µM), the “K SV, Stern–Volmer quenching constant” value is listed as 2.95 10^5 M^−1 and the “K q, bimolecular quenching rate constant” value was 29.5 10^12 M^−1·s^−1. In addition, the “n, number of binding sites” value in test [1] (setting [5]) came to 1.0. Besides, in test [1] (modified Stern–Volmer equation, HSA 5 µM, pH 7.4, 25°C, read-out: K, binding constant (converted)), the Kd was 3.03 µM. In addition, in test [1], the “∆G, standard free energy change of binding” value is -31.40 kJ/mol.

For the compound `[K+].[O-][Cl+3]([O-])([O-])[O-]` [KClO4, reference compound], the “effect of anion salt alone on HSA structure” value in test [2] is listed as “negligible perturbance of the HSA structure”.

Turning to `O=[N+]([O-])[O-].[K+]` [KNO3, reference compound], the “effect of anion salt alone on HSA structure” value in test [2] is given as “negligible perturbance of the HSA structure”.

These data come from paper PMC5889910, “β-Carboline Silver Compound Binding Studies with Human Serum Albumin: A Comprehensive Multispectroscopic Analysis and Molecular Modeling Study” (Bioinorganic Chemistry and Applications, 2018).
